# In patent US10358434B2, “2-(3-pyridinyl)-1H-benzimidazole derivative compound and medicament containing same” (NIHON MEDI-PHYSICS CO., LTD., priority 2014, dated 2019):
# Columns and labels:
# [1] = tested on: human adrenal gland section expressing aldosterone-producing adenoma; test: In vitro autoradiography using human adrenal adenoma; format: binding
# Summary of the method: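 Frozen 7-μm sections of human adrenal bearing aldosterone-producing adenoma were immersed 10 min in radioligand (5-33 kBq/mL) in PBS with 1% fatty-acid-free BSA, washed, then exposed to imaging plates for 16-20 h. Equal-area ROI PSL in adenoma (B2) versus normal cortex (B1) gave B2/B1, corrected for nuclide half-life, added activity and exposure time.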
# [2] = In vivo kinetics experiment (radioactivity distribution); design: species or system Wistar male rat; settings: rat; for Adrenal gland/blood ratio of radioactivity accumulation / Adrenal gland/fat ratio of radioactivity accumulation / Adrenal gland/kidney ratio of radioactivity accumulation / Adrenal gland/liver ratio of radioactivity accumulation / Adrenal gland/muscle ratio of radioactivity accumulation / Adrenal gland/small intestine ratio of radioactivity accumulation / Radioactivity distribution Adrenal gland / Radioactivity distribution Bladder (including urine) / Radioactivity distribution Blood / Radioactivity distribution Fat / Radioactivity distribution Femur / Radioactivity distribution Heart / Radioactivity distribution Kidney / Radioactivity distribution Large intestine / Radioactivity distribution Liver / Radioactivity distribution Lung / Radioactivity distribution Muscle (lower limbs) / Radioactivity distribution Remaining whole body / Radioactivity distribution Small intestine / Radioactivity distribution Spleen / Radioactivity distribution Stomach / Radioactivity distribution Testis / Radioactivity distribution Whole brain: caudal vein
# Summary of the method: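 Male Wistar rats (9 weeks) under isoflurane received approximately 1 to 3.7 MBq radiotracer in saline with 1 w/v % ascorbic acid by tail-vein injection. At 10, 30 and 60 min, rats were exsanguinated; blood, organs and remaining body weighed and counted, giving % ID/g and adrenal-to-tissue ratios.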
# [3] = Plasma stability evaluation (TLC analysis); format: in vitro ADME; settings: 37° C., 60 minutes
# Summary of the method: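 Radiolabelled compounds were incubated in heparin-treated pooled normal human plasma at 37° C for 60 minutes. After methanol deproteinization and centrifugation, stability was assessed by TLC under the conditions used for each compound's synthesis.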
smiles,measurement,setting,value
"Fc1cc2nc(-c3cncc(Cn4ccnc4)c3)n(CC[18F])c2cc1Br [[^18F] 200, 6-Bromo-5-fluoro-1-(2-[^18F]fluoroethyl)-2-[5-(imidazol-1-ylmethyl)pyridin-3-yl]benzimidazole]",accumulation of radioactivity in adrenal gland section (autoradiogram),[1]; FIGS. 18 to 31,accumulation of radioactivity was selectively observed in a region in which aldosterone-producing adenoma had been pathologically observed
same,B2/B1 accumulation ratio,[1]; section of FIG. 17(a),3.34
same,"B2 (PSL value, aldosterone-producing adenoma)","[1]; section of FIG. 17(a), site 71a",4409
same,"B1 (PSL value, normal adrenal cortex)","[1]; section of FIG. 17(a), site 72a",1321
same,accumulation of radioactivity in adrenal gland vs blood and peripheral tissues,[2]; Tables 9 to 22,"high accumulation of radioactivity in adrenal gland was observed, in comparison to in blood and peripheral tissues"
same,Adrenal gland/blood ratio of radioactivity accumulation,[2]; 10 min after administration,100.87 ± 36.73
same,Adrenal gland/fat ratio of radioactivity accumulation,[2]; 10 min after administration,174.42 ± 63.32
same,Adrenal gland/kidney ratio of radioactivity accumulation,[2]; 10 min after administration,11.40 ± 5.81
same,Adrenal gland/liver ratio of radioactivity accumulation,[2]; 10 min after administration,2.68 ± 1.01
same,Adrenal gland/muscle ratio of radioactivity accumulation,[2]; 10 min after administration,88.35 ± 26.16
same,Adrenal gland/small intestine ratio of radioactivity accumulation,[2]; 10 min after administration,13.32 ± 3.08
same,Radioactivity distribution Adrenal gland,[2]; 10 min after administration,14.35 ± 4.09 % ID/g
same,Radioactivity distribution Bladder (including urine),[2]; 10 min after administration,1.28 ± 0.11 % ID/g
same,Radioactivity distribution Blood,[2]; 10 min after administration,0.15 ± 0.01 % ID/g
same,Radioactivity distribution Fat,[2]; 10 min after administration,0.08 ± 0.02 % ID/g
same,Radioactivity distribution Femur,[2]; 10 min after administration,0.38 ± 0.03 % ID/g
same,Radioactivity distribution Heart,[2]; 10 min after administration,0.32 ± 0.03 % ID/g
same,Radioactivity distribution Kidney,[2]; 10 min after administration,1.39 ± 0.39 % ID/g
same,Radioactivity distribution Large intestine,[2]; 10 min after administration,0.16 ± 0.01 % ID/g
same,Radioactivity distribution Liver,[2]; 10 min after administration,5.54 ± 0.78 % ID/g
same,Radioactivity distribution Lung,[2]; 10 min after administration,0.54 ± 0.07 % ID/g
same,Radioactivity distribution Muscle (lower limbs),[2]; 10 min after administration,0.16 ± 0.00 % ID/g
same,Radioactivity distribution Remaining whole body,[2]; 10 min after administration,0.15 ± 0.00 % ID/g
same,Radioactivity distribution Small intestine,[2]; 10 min after administration,1.07 ± 0.07 % ID/g
same,Radioactivity distribution Spleen,[2]; 10 min after administration,1.49 ± 0.32 % ID/g
same,Radioactivity distribution Stomach,[2]; 10 min after administration,0.36 ± 0.04 % ID/g
same,Radioactivity distribution Testis,[2]; 10 min after administration,0.04 ± 0.00 % ID/g
same,Radioactivity distribution Whole brain,[2]; 10 min after administration,0.02 ± 0.00 % ID/g
same,Adrenal gland/blood ratio of radioactivity accumulation,[2]; 30 min after administration,145.45 ± 14.69
same,Adrenal gland/fat ratio of radioactivity accumulation,[2]; 30 min after administration,425.84 ± 103.54
same,Adrenal gland/kidney ratio of radioactivity accumulation,[2]; 30 min after administration,17.00 ± 1.67
same,Adrenal gland/liver ratio of radioactivity accumulation,[2]; 30 min after administration,5.06 ± 0.59
same,Adrenal gland/muscle ratio of radioactivity accumulation,[2]; 30 min after administration,158.65 ± 18.59
same,Adrenal gland/small intestine ratio of radioactivity accumulation,[2]; 30 min after administration,8.44 ± 1.36
same,Radioactivity distribution Adrenal gland,[2]; 30 min after administration,22.61 ± 2.12 % ID/g
same,Radioactivity distribution Bladder (including urine),[2]; 30 min after administration,2.82 ± 1.27 % ID/g
same,Radioactivity distribution Blood,[2]; 30 min after administration,0.16 ± 0.00 % ID/g
same,Radioactivity distribution Fat,[2]; 30 min after administration,0.06 ± 0.02 % ID/g
same,Radioactivity distribution Femur,[2]; 30 min after administration,0.40 ± 0.10 % ID/g
same,Radioactivity distribution Heart,[2]; 30 min after administration,0.33 ± 0.02 % ID/g
same,Radioactivity distribution Kidney,[2]; 30 min after administration,1.33 ± 0.03 % ID/g
same,Radioactivity distribution Large intestine,[2]; 30 min after administration,0.27 ± 0.04 % ID/g
same,Radioactivity distribution Liver,[2]; 30 min after administration,4.48 ± 0.13 % ID/g
same,Radioactivity distribution Lung,[2]; 30 min after administration,0.48 ± 0.04 % ID/g
same,Radioactivity distribution Muscle (lower limbs),[2]; 30 min after administration,0.14 ± 0.01 % ID/g
same,Radioactivity distribution Remaining whole body,[2]; 30 min after administration,0.13 ± 0.02 % ID/g
same,Radioactivity distribution Small intestine,[2]; 30 min after administration,2.70 ± 0.21 % ID/g
same,Radioactivity distribution Spleen,[2]; 30 min after administration,1.09 ± 0.25 % ID/g
same,Radioactivity distribution Stomach,[2]; 30 min after administration,0.56 ± 0.06 % ID/g
same,Radioactivity distribution Testis,[2]; 30 min after administration,0.05 ± 0.04 % ID/g
same,Radioactivity distribution Whole brain,[2]; 30 min after administration,0.01 ± 0.00 % ID/g
same,Adrenal gland/blood ratio of radioactivity accumulation,[2]; 60 min after administration,168.33 ± 36.80
same,Adrenal gland/fat ratio of radioactivity accumulation,[2]; 60 min after administration,417.70 ± 25.29
same,Adrenal gland/kidney ratio of radioactivity accumulation,[2]; 60 min after administration,18.05 ± 3.00
same,Adrenal gland/liver ratio of radioactivity accumulation,[2]; 60 min after administration,6.87 ± 1.26
same,Adrenal gland/muscle ratio of radioactivity accumulation,[2]; 60 min after administration,180.41 ± 24.02
same,Adrenal gland/small intestine ratio of radioactivity accumulation,[2]; 60 min after administration,5.43 ± 1.42
same,Radioactivity distribution Adrenal gland,[2]; 60 min after administration,21.73 ± 3.25 % ID/g
same,Radioactivity distribution Bladder (including urine),[2]; 60 min after administration,5.83 ± 2.21 % ID/g
same,Radioactivity distribution Blood,[2]; 60 min after administration,0.13 ± 0.01 % ID/g
same,Radioactivity distribution Fat,[2]; 60 min after administration,0.05 ± 0.00 % ID/g
same,Radioactivity distribution Femur,[2]; 60 min after administration,0.28 ± 0.00 % ID/g
same,Radioactivity distribution Heart,[2]; 60 min after administration,0.27 ± 0.02 % ID/g
same,Radioactivity distribution Kidney,[2]; 60 min after administration,1.21 ± 0.04 % ID/g
same,Radioactivity distribution Large intestine,[2]; 60 min after administration,0.41 ± 0.06 % ID/g
same,Radioactivity distribution Liver,[2]; 60 min after administration,3.18 ± 0.23 % ID/g
same,Radioactivity distribution Lung,[2]; 60 min after administration,0.39 ± 0.09 % ID/g
same,Radioactivity distribution Muscle (lower limbs),[2]; 60 min after administration,0.12 ± 0.00 % ID/g
same,Radioactivity distribution Remaining whole body,[2]; 60 min after administration,0.12 ± 0.00 % ID/g
same,Radioactivity distribution Small intestine,[2]; 60 min after administration,4.13 ± 0.83 % ID/g
same,Radioactivity distribution Spleen,[2]; 60 min after administration,0.68 ± 0.05 % ID/g
same,Radioactivity distribution Stomach,[2]; 60 min after administration,0.65 ± 0.16 % ID/g
same,Radioactivity distribution Testis,[2]; 60 min after administration,0.09 ± 0.00 % ID/g
same,Radioactivity distribution Whole brain,[2]; 60 min after administration,0.01 ± 0.00 % ID/g
same,stability in human plasma,[3],hardly metabolized and decomposed in the plasma
same,Radiochemical purity after incubation in human plasma,[3]; TLC analysis,92%
